The values that follow come from patent US8940897B2, “1,3,4-oxadiazole and 1,3,4-thiadiazole β-lactamase inhibitors” (priority 2012, dated 2015).

Structures can show the parent of a compound that is named as a salt.

Experiment [1] deals with bacterial strains that express the class D cephalosporinase OXA-15. Briefly: Synergy MIC / standard BLI potentiation MIC assay, strains expressing OXA-15.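 Further: more active means a lower MIC or sMIC than Avibactam.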 Particulars: in the presence of a β-lactam; comparator Avibactam (CCC). Type of experiment: cell-based, E. coli. On the procedure: (§1) Unless otherwise indicated, the activity of the BLI compounds can be described by the MIC value obtained from a Synergy MIC assay or a BLI potentiation assay (e.g as described herein), both of which are run in the presence of a β-lactam.
(§2) The experimental protocol was performed according to Clinical and Laboratory Standards Institute (CLSI) guidelines with modifications as described below (CLSI guidelines can be derived from the CLSI document M07-A9 published in January 2012: “Methods for Dilution Antimicrobial Susceptibility Tests for Bacteria That Grow Aerobically; Approved Standard-Ninth Edition”).
(§3) To prepare for MIC testing, frozen glycerol stocks of clinical isolates (Klebsiella pneumoniae, Eschericia coli, Enterobacter spp, Citrobacter spp, or Pseudomonas aeruginosa) were used to streak for isolated colonies on rich, non-selective, tryptic soy agar containing 5% sheep's blood (TSAB). Frozen glycerol stocks of laboratory engineered, isogenic E. coli strains, which contain cloned β-lactamase expressing plasmids were used to streak for isolated colonies on rich, selective LB agar supplemented with 25 μg/mL tetracycline to maintain the plasmid. All strains were incubated at 37° C. for 18-24 hrs.
(§4) On the day of testing, primary cultures were started by scraping off 5-10 colonies from the TSAB plates containing clinical strains or the tetracycline supplemented LB plates containing engineered strains. The clinical strain material was suspended in ˜5 mL of cation adjusted Mueller Hinton Broth (CAMHB) in 14 mL culture tubes. The engineered strain material was suspended in CAMHB (supplemented with 25 μg/mL tetracycline) in 14 mL culture tubes. All strains were incubated at 37° C. with aeration (200 rpm) for ˜2 hrs until the optical density at 600 nm (OD600) was ≧0.1.
(§5) The two compound components of the assay were each diluted in CAMHB and added to the 96-well broth microdilution assay plates. 50 μL of the β-lactam was added to each well of the assay plate in 2-fold dilutions with final concentrations ranging from 128 to 0.13 μg/mL. 25 μL of the BLI compound was added to all wells in the broth microdilution plates at a final concentration of 4 μg/mL. Inoculum cultures were prepared by standardizing the primary cultures to OD600=0.1 and then adding 20 μL of the adjusted primary culture per 1 mL CAMHB for clinical strains or CAMHB (supplemented with tetracycline at 100 μg/mL) for engineered strains, so that the final inoculum density was ˜10^5 colony forming units per milliliter. Diluted inoculum cultures were used to inoculate 25 μl, per well in 96-well broth microdilution assay plates. The final volume of each well was 100 μL and contained a β-lactam at different concentrations, a BLIcompound at 4 μg/mL concentration, the bacterial culture at an OD600 of approximately 0.001 and when necessary tetracycline at 25 μg/mL.
(§6) Plates were incubated for 18-20 hours at 37° C. with aeration (200 rpm). Following incubation, growth was confirmed visually placing plates over a viewing apparatus (stand with a mirror underneath) and then OD600 was measured using a SpectraMax 340PC384 plate reader (Molecular Devices, Sunnyvale, Calif.). Growth was defined as turbidity that could be detected with the naked eye or achieving minimum OD600 of 0.1. MIC values were defined as the lowest concentration producing no visible turbidity.
(§7) The synergy MIC (sMIC) assay determines the concentration of the BLI required to potentiate the activity of a fixed concentration of a β-lactam antibiotic against β-lactamase producing bacterial strains. The experimental protocol was performed according to Clinical and Laboratory Standards Institute (CLSI) guidelines with modifications as described below (CLSI guidelines can be derived from the CLSI document M07-A9 published in January 2012: “Methods for Dilution Antimicrobial Susceptibility Tests for Bacteria That Grow Aerobically; Approved Standard-Ninth Edition”). […]

Experiment [2] concerns bacterial strains that express KPC β-lactamases. The experiment is described as follows: Synergy MIC / standard BLI potentiation MIC assay, strains expressing KPC β-lactamases. Type of experiment: cell-based. Particulars: for at least one KPC strain and/or a better spectrum of activity against KPC strains than Avibactam; in the presence of a β-lactam. The protocol:
as §1, §2, §3, §4, §5, §6, §7

On to `O=C1N2C[C@@H](CC[C@H]2c2nnco2)N1OS(=O)(=O)O` [Compound 701, (2S,5R)-2-(1,3,4-oxadiazol-2-yl)-7-oxo-1,6-diazabicyclo[3.2.1]octan-6-yl hydrogen sulfate], for which the “activity against bacterial strains that express OXA-15 β-lactamase compared with Avibactam” value in experiment [1] was “more active than Avibactam”. Further, the “activity against bacterial strains that express KPC β-lactamase compared with Avibactam” value in experiment [2] is on record as “more active than Avibactam”.

With `NCc1nnc([C@@H]2CC[C@@H]3CN2C(=O)N3OS(=O)(=O)O)o1` [Compound 702, (2S,5R)-2-(5-(aminomethyl)-1,3,4-oxadiazol-2-yl)-7-oxo-1,6-diazabicyclo[3.2.1]octan-6-yl hydrogen sulfate], the “activity against bacterial strains that express OXA-15 β-lactamase compared with Avibactam” value in experiment [1] is “more active than Avibactam”. Moreover, the “activity against bacterial strains that express KPC β-lactamase compared with Avibactam” value in experiment [2] is reported as “more active than Avibactam”.

Turning to `NCCc1nnc([C@@H]2CC[C@@H]3CN2C(=O)N3OS(=O)(=O)O)o1` [Compound 703, (2S,5R)-2-(5-(2-aminoethyl)-1,3,4-oxadiazol-2-yl)-7-oxo-1,6-diazabicyclo[3.2.1]octan-6-yl hydrogen sulfate], the “activity against bacterial strains that express OXA-15 β-lactamase compared with Avibactam” value in experiment [1] is “more active than Avibactam”. Besides, the “activity against bacterial strains that express KPC β-lactamase compared with Avibactam” value in experiment [2] is “more active than Avibactam”.

As to `N=C(N)NCCc1nnc([C@@H]2CC[C@@H]3CN2C(=O)N3OS(=O)(=O)O)o1` [Compound 705, (2S,5R)-2-(5-(2-guanidinoethyl)-1,3,4-oxadiazol-2-yl)-7-oxo-1,6-diazabicyclo[3.2.1]octan-6-yl hydrogen sulfate], in experiment [1], the “activity against bacterial strains that express OXA-15 β-lactamase compared with Avibactam” value was “more active than Avibactam”. The “activity against bacterial strains that express KPC β-lactamase compared with Avibactam” value in experiment [2] is given as “more active than Avibactam”.

For `NC(=O)c1nnc([C@@H]2CC[C@@H]3CN2C(=O)N3OS(=O)(=O)O)o1` [Compound 706, (2S,5R)-2-(5-carbamoyl-1,3,4-oxadiazol-2-yl)-7-oxo-1,6-diaza-bicyclo[3.2.1]octan-6-yl hydrogen sulfate], the “activity against bacterial strains that express OXA-15 β-lactamase compared with Avibactam” value in experiment [1] was “more active than Avibactam”. In addition, the “activity against bacterial strains that express KPC β-lactamase compared with Avibactam” value in experiment [2] is “more active than Avibactam”.

In the case of `O=C1N2C[C@@H](CC[C@H]2c2nnc(C3CNC3)o2)N1OS(=O)(=O)O` [Compound 708, (2S,5R)-2-(5-(azetidin-3-yl)-1,3,4-oxadiazol-2-yl)-7-oxo-1,6-diazabicyclo[3.2.1]octan-6-yl hydrogen sulfate], the “activity against bacterial strains that express OXA-15 β-lactamase compared with Avibactam” value in experiment [1] is “more active than Avibactam”. Also, in experiment [2], the “activity against bacterial strains that express KPC β-lactamase compared with Avibactam” value is listed as “more active than Avibactam”.

`N=C(N)N1CC(c2nnc([C@@H]3CC[C@@H]4CN3C(=O)N4OS(=O)(=O)O)o2)C1` [Compound 709, (2S,5R)-2-(5-(1-carbamimidoylazetidin-3-yl)-1,3,4-oxadiazol-2-yl)-7-oxo-1,6-diazabicyclo[3.2.1]octan-6-yl hydrogen sulfate]: the “activity against bacterial strains that express OXA-15 β-lactamase compared with Avibactam” value in experiment [1] was “more active than Avibactam”. Further, the “activity against bacterial strains that express KPC β-lactamase compared with Avibactam” value in experiment [2] is reported as “more active than Avibactam”.

On to `O=C1N2C[C@@H](CC[C@H]2c2nnc(C3CCNC3)o2)N1OS(=O)(=O)O` (stereo partly drawn) [Compound 710, (2S,5R)-7-oxo-2-(5-(pyrrolidin-3-yl)-1,3,4-oxadiazol-2-yl)-1,6-diazabicyclo[3.2.1]octan-6-yl hydrogen sulfate], for which, in experiment [1], the “activity against bacterial strains that express OXA-15 β-lactamase compared with Avibactam” value is given as “more active than Avibactam”. For the same molecule, the “activity against bacterial strains that express KPC β-lactamase compared with Avibactam” value in experiment [2] is “more active than Avibactam”.

Consider `O=C1N2C[C@@H](CC[C@H]2c2nnc(C3CCNCC3)o2)N1OS(=O)(=O)O` [Compound 711, (2S,5R)-7-oxo-2-(5-(piperidin-4-yl)-1,3,4-oxadiazol-2-yl)-1,6-diazabicyclo[3.2.1]octan-6-yl hydrogen sulfate], for which, in experiment [1], the “activity against bacterial strains that express OXA-15 β-lactamase compared with Avibactam” value is recorded as “more active than Avibactam”. The “activity against bacterial strains that express KPC β-lactamase compared with Avibactam” value in experiment [2] is “more active than Avibactam”.

Turning to `NCCCc1nnc([C@@H]2CC[C@@H]3CN2C(=O)N3OS(=O)(=O)O)o1` [Compound 720, (2S,5R)-2-(5-(3-aminopropyl)-1,3,4-oxadiazol-2-yl)-7-oxo-1,6-diazabicyclo[3.2.1]octan-6-yl hydrogen sulfate], in experiment [1], the “activity against bacterial strains that express OXA-15 β-lactamase compared with Avibactam” value was “more active than Avibactam”. Also, the “activity against bacterial strains that express KPC β-lactamase compared with Avibactam” value in experiment [2] is listed as “more active than Avibactam”.

Turning to `N=C(N)NCc1nnc([C@@H]2CC[C@@H]3CN2C(=O)N3OS(=O)(=O)O)s1` [Compound 721, (2S,5R)-2-(5-(guanidinomethyl)-1,3,4-thiadiazol-2-yl)-7-oxo-1,6-diazabicyclo[3.2.1]octan-6-yl hydrogen sulfate], the “activity against bacterial strains that express OXA-15 β-lactamase compared with Avibactam” value in experiment [1] is listed as “more active than Avibactam”. In experiment [2], the “activity against bacterial strains that express KPC β-lactamase compared with Avibactam” value was “more active than Avibactam”.

Regarding `CNCCc1nnc([C@@H]2CC[C@@H]3CN2C(=O)N3OS(=O)(=O)O)o1` [Compound 722, (2S,5R)-2-(5-(2-(methylamino)ethyl)-1,3,4-oxadiazol-2-yl)-7-oxo-1,6-diazabicyclo[3.2.1]octan-6-yl hydrogen sulfate], the “activity against bacterial strains that express OXA-15 β-lactamase compared with Avibactam” value in experiment [1] is “more active than Avibactam”. Moreover, the “activity against bacterial strains that express KPC β-lactamase compared with Avibactam” value in experiment [2] is recorded as “more active than Avibactam”.

For `N=C(N)NCC1(c2nnc([C@@H]3CC[C@@H]4CN3C(=O)N4OS(=O)(=O)O)o2)CC1` [Compound 723, (2S,5R)-2-(5-(1-(guanidinomethyl)cyclopropyl)-1,3,4-oxadiazol-2-yl)-7-oxo-1,6-diazabicyclo[3.2.1]octan-6-yl hydrogen sulfate], the “activity against bacterial strains that express OXA-15 β-lactamase compared with Avibactam” value in experiment [1] was “more active than Avibactam”. Further, in experiment [2], the “activity against bacterial strains that express KPC β-lactamase compared with Avibactam” value is reported as “more active than Avibactam”.

Turning to `NC1(Cc2nnc([C@@H]3CC[C@@H]4CN3C(=O)N4OS(=O)(=O)O)o2)CC1` [Compound 724, (2S,5R)-2-(5-((1-aminocyclopropyl)methyl)-1,3,4-oxadiazol-2-yl)-7-oxo-1,6-diazabicyclo[3.2.1]octan-6-yl hydrogen sulfate], the “activity against bacterial strains that express OXA-15 β-lactamase compared with Avibactam” value in experiment [1] was “more active than Avibactam”. Further, in experiment [2], the “activity against bacterial strains that express KPC β-lactamase compared with Avibactam” value was “more active than Avibactam”.

For `O=C1N2C[C@@H](CC[C@H]2c2nnc(CNC3CNC3)o2)N1OS(=O)(=O)O` [Compound 726, (2S,5R)-2-(5-((azetidin-3-ylamino)methyl)-1,3,4-oxadiazol-2-yl)-7-oxo-1,6-diazabicyclo[3.2.1]octan-6-yl hydrogen sulfate], the “activity against bacterial strains that express OXA-15 β-lactamase compared with Avibactam” value in experiment [1] is “more active than Avibactam”. Also, in experiment [2], the “activity against bacterial strains that express KPC β-lactamase compared with Avibactam” value is reported as “more active than Avibactam”.

For `NC1CCN(CCc2nnc([C@@H]3CC[C@@H]4CN3C(=O)N4OS(=O)(=O)O)o2)CC1` [Compound 775, (2S,5R)-2-(5-(2-(4-aminopiperidin-1-yl)ethyl)-1,3,4-oxadiazol-2-yl)-7-oxo-1,6-diazabicyclo[3.2.1]octan-6-yl hydrogen sulfate], the “activity against bacterial strains that express KPC β-lactamase compared with Avibactam” value in experiment [2] is recorded as “more active than Avibactam”.
